Patent US9051326B2, “Pyrazoline derivatives and their use as selective androgen receptor modulators” (NOVARTIS AG, priority 2011, dated 2015)
Like-named read-outs stand apart in the source and are kept apart here.

How the values were obtained:
androgen receptor (AR) = target: T1, androgen receptor (AR) (Homo sapiens, UniProt P10275); experiment: AR transcriptional activation luciferase reporter assay in C2C12 cells (Test 1); format: cell-based
T1 construct: transfecting C2C12 cells with a plasmid containing full-length AR along with an AR response element linked to luciferase; expressed in transfected cells; host or cells: mouse myoblastic C2C12 cells (ATCC CRL-1772), transient transfection with Lipofectamine 2000
T1 sequence (P10275 1-920): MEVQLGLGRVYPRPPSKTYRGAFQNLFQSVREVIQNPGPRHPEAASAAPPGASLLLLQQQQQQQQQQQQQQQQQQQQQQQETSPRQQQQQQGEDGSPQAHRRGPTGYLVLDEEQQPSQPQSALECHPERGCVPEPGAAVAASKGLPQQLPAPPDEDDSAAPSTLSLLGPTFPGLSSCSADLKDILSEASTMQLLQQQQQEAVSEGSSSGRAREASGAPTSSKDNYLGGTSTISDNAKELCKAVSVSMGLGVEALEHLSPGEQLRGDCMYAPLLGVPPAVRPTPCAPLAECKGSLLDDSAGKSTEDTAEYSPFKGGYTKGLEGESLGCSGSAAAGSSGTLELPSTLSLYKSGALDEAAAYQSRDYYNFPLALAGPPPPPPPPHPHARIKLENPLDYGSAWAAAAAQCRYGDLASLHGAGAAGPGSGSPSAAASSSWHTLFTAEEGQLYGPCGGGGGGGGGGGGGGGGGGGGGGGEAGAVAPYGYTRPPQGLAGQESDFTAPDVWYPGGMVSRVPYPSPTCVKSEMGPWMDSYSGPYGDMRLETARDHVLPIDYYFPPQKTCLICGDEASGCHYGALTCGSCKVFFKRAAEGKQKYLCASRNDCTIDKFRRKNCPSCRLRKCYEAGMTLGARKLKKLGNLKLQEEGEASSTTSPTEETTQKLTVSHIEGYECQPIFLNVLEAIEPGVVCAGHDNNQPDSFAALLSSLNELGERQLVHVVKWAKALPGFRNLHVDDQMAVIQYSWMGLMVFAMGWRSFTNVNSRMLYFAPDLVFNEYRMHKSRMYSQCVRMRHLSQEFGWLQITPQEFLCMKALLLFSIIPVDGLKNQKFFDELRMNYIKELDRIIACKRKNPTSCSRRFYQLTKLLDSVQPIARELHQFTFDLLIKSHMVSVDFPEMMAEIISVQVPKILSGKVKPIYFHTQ
Description: A suitable assay to determine the ability of a ligand to transcriptionally activate androgen receptor (AR) is carried out using mouse myoblastic C2C12 cells. The assay involves transfecting C2C12 cells with a plasmid containing full-length AR along with an AR response element linked to luciferase (2XIDR17). The luminescence read-out at the end of the assay is measured using Victor 3 and is a direct measure of the transcriptional activity. The assay has been validated using the reference compound, BMS-564929, for which EC50 values have been reported in a similar set-up. Other tool compounds that have been used for assay validation are GSK-420A, Andarine, putative Ostarine, and LGD-2226.
C2C12 cells were obtained from ATCC (Cat # CRL-1772) and maintained in DMEM modified to contain 4 mM L-glutamine, 4.5 g/L glucose, 1 mM sodium pyruvate and 1.5 g/L sodium bicarbonate and 10% FBS.
AR-FL in pcDNA 3.1(+) and 2XIDR17 in pGL4.26 plasmids prepared using Genelute plasmid miniprep kit from Sigma Cat # PLED35
• C2C12 cells were seeded in a 96-well plate in DMEM (Dulbecco's Modified Eagle Medium) without phenol red and containing 10% CS-FBS (Charcoal-stripped Fetal Bovine Serum) at 8000 cells/well. • The next day, cells were transfected with an equimolar ratio of (Androgen Receptor-Full length) AR-FL and 2XIDR17-Luciferase at a total plasmid concentration of 200 ng/well using Lipofectamine 2000 following manufacturer's protocol. • For the transfection, 83 ng of AR-FL and 117 ng of 2XIDR17-Luciferase were in 12.5 μl of OptiMEM—Mix A. 0.4 μl of Lipofectamine 2000 was added to 12.5 μl of OptiMEM and incubated for 5 min at room temperature—Mix B. The two mixes A and B were mixed and incubated at room temperature for an additional fifteen minutes. An additional 50 μl of OptiMEM was added, gently mixed and this mixture was added to the cells in the 96-well plate. The above quantities are requirements per well of a 96-well plate. Master mixes were made for the entire plate, with proportional quantity of reagents being used. • 5 h after transfection, compounds were added to the wells in DMEM without phenol red and containing 10% CS-FBS, maintaining a final DMSO concentration of 0.5%. A typical dose response curve starts at 10 μM and includes a 7-point, log dilution, done in triplicates. • After overnight incubation with the compounds, 100 ul of working solution of Steadyglow reagent was added to the wells. • The plates were placed in a shaker for 15 min at the end of which the lysate containing luciferase was transferred to a white flat-bottom plate and read under a luminescence setting in Victor. • Background subtracted counts (Luminescence from DMSO control wells is considered the background) are used to calculate percentage activity, expressed relative to activity with 1 μM (Dihydrotestosterone) DHT (at least two sets of triplicates for 1 μM DHT are included per plate). Data Fitting: • The EC50 curves for the compounds for 8 compound concentrations were fitted by the respective function using non-linear least-squares regression in Graphpad Prism 4.0 (Graphpad Software, San Diego, Calif., USA).

[1] = tested on: orchidectomized male Wistar rats; experiment: In vivo modified Hershberger assay (Test 2); parameters: species or system rat; details: for luteinizing hormone (LH) levels / weights of levator ani compared to prostate: 14 days treatment; for luteinizing hormone (LH) levels: in comparison to ORX animals; for plasma drug concentration: day 15, 3 hours after last dose; for weights of levator ani compared to prostate: orchidectomized male rats
Description: The test article Testosterone Propionate is dissolved using 10% ethanol, 90% corn oil. Ostarine is suspended in 1% CMC, 0.1% Tween-80, water. Compounds of examples 1 and 5 are dissolved in 50% PEG 200 and 50% of saline. Ostarine is administered orally at 1 ml/kg volume. Testosterone Propionate, Compounds of examples 1 and 5 are administered subcutaneously to 14 days prior orchidectomized male rats at 1 ml per kg body weight for a period of 14 days. Each group of 6 rats receives dosages of 0.01, 0.1, 1 and 10 mg/kg. 6 animals each serves as sham control and ORX control and are administered vehicle at 1 ml/kg.
Testosterone Propionate is subcutaneously administered at doses of 0.03, 0.1, 0.3, 1.3 and 10 mg/kg. Ostarine is given orally at doses of 0.001, 0.003, 0.01, 0.03, 0.1, 0.3, 1.3 and 10 mg/kg.
The various investigations like mortality, clinical signs, body weight, food consumption, drug concentration analysis (day 15), clinical pathology and gross pathology parameters are performed on all groups.
Evaluation of Testosterone Propionate, Ostarine, examples 1 and 5 in modified Hershberger assay in male wistar rats was conducted at the Department of Preclinical Biology, Aurigene Discovery Technologies Ltd., Bangalore, India.

SMILES	luteinizing hormone (LH) levels [1]	plasma drug concentration [1]	weights of levator ani compared to prostate [1]	EC50 (androgen receptor (AR)) [nM]	other results
CO[C@@H]1C(c2ccc(C#N)c(Cl)c2C)=NN2CC[C@H](O)[C@@H]12 [Example 1, 2-chloro-4-((3S,3aS,4S)-4-hydroxy-3-methoxy-3a,4,5,6-tetrahydro-3H-pyrrolo[1,2-b]pyrazol-2-yl)-3-methylbenzonitrile]	concurrent decrease of LH levels	dose dependent increase	dose dependent selective increase in weights of levator ani compared to prostate		EC50 (androgen receptor (AR); mouse myoblastic C2C12 cells transfected with AR-FL and 2XIDR17-luciferase, read-out: Biological activity (C2C12 cell) EC50): 0.5 nM
CCO[C@@H]1C(c2ccc(C#N)c(Cl)c2C)=NN2CC[C@H](O)[C@@H]12 [Example 5, 2-chloro-4-((3S,3aS,4S)-3-ethoxy-4-hydroxy-3a,4,5,6-tetrahydro-3H-pyrrolo[1,2-b]pyrazol-2-yl)-3-methylbenzonitrile]	concurrent decrease of LH levels	dose dependent increase	dose dependent selective increase in weights of levator ani compared to prostate	1.2	
C[C@](O)(COc1ccc(C#N)cc1)C(=O)Nc1ccc(C#N)c(C(F)(F)F)c1 [Ostarine, reference compound]	concurrent decrease of LH levels	dose dependent increase	dose dependent selective increase in weights of levator ani compared to prostate		
CCC(=O)O[C@H]1CC[C@H]2[C@@H]3CCC4=CC(=O)CC[C@]4(C)[C@H]3CC[C@]12C [Testosterone Propionate, reference compound]			did not show any selectivity on levator ani versus prostate		
CO[C@@H]1C(c2ccc(C#N)c(Cl)c2C)=NN2CC[C@@H](O)[C@@H]12 [Example 2, 2-chloro-4-((3S,3aS,4R)-4-hydroxy-3-methoxy-3a,4,5,6-tetrahydro-3H-pyrrolo[1,2-b]pyrazol-2-yl)-3-methylbenzonitrile]				0.6	
COCCCO[C@@H]1C(c2ccc(C#N)c(Cl)c2C)=NN2C[C@H](O)C[C@@H]12 [Example 29]				40	
CO[C@@H]1C(c2ccc(C#N)c(Cl)c2C)=NN2CC(O)(C(F)(F)F)C[C@@H]12 (stereo partly drawn) [Example 11, 2-chloro-4-((3S,3aS)-5-hydroxy-3-methoxy-5-(trifluoromethyl)-3a,4,5,6-tetrahydro-3H-pyrrolo[1,2-b]pyrazol-2-yl)-3-methylbenzonitrile]					% Biological activity (C2C12 cell) 100 nM (androgen receptor (AR); 100 nM compound, activity relative to 1 μM DHT): 24%; % Biological activity (C2C12 cell) 5 μM (androgen receptor (AR); 5 μM compound, activity relative to 1 μM DHT): 33%
CO[C@@H]1C(c2ccc(C#N)c(Cl)c2C)=NN2CC(=O)C[C@@H]12 [Example 9, 2-chloro-4-((3S,3aS)-3-methoxy-5-oxo-3a,4,5,6-tetrahydro-3H-pyrrolo[1,2-b]pyrazol-2-yl)-3-methylbenzonitrile]				10.5	
Cc1c(C2=NN3CC[C@H](O)[C@H]3[C@@H]2O)ccc(C#N)c1Cl [Example 3, 2-chloro-4-((3S,3aS,4S)-3,4-dihydroxy-3a,4,5,6-tetrahydro-3H-pyrrolo[1,2-b]pyrazol-2-yl)-3-methylbenzonitrile]				821	
CO[C@@H]1C(c2ccc(C#N)c(Cl)c2C)=NN2C[C@@H](I)C[C@@H]12 [Example 19, 2-chloro-4-((3S,3aS,5S)-5-iodo-3-methoxy-3a,4,5,6-tetrahydro-3H-pyrrolo[1,2-b]pyrazol-2-yl)-3-methylbenzonitrile]				7	
